Tests used:
[1] = molecular target: T1, 6×-His-PYR1(27-18) (S47P, K59R, Y120H) (Arabidopsis thaliana, UniProt O49686, K59R/S47P/Y120H); assay: In vitro PP2C phosphatase activity assay (receptor activation = inhibition of PP2C); type: biochemical; conditions: mutant 27-18; increasing concentrations; 10 mM Mn++ buffer; FIG. 1
T1 construct: 6x-His (N); made in house
Description: FIGS. 1A-1B. PYR1 mutant 27-18 confers responsiveness to fenhexamid but not ABA. Representative PYR1 mutant 27-18 (comprising S47P, K59R, and Y120H substitution mutations) was tested for responsiveness to abscisic acid (“ABA”) (FIG. 1A) and fenhexamid (FIG. 1B) at increasing concentrations as compared to a wild-type PYR1 control using an in vitro PP2C phosphatase activity assay.
To probe orthogonal receptor-ligand interactions further, recombinant protein was expressed for the fenhexamid-responsive mutant 27-18, which has three mutations in PYR1. 6×-His-PYR1(27-18) protein was expressed and purified alongside wild-type PYR1 protein. Both proteins were tested for their ability to inhibit PP2C activity in response to increasing concentrations of either ABA or fenhexamid using phosphatase activity assays, in which activation of the PYR/PYL receptor is monitored by inhibition of PP2C activity (FIG. 1).

[2] = molecular target: T2, PYR1 K59R,Y120H,M158I triple mutant (Arabidopsis thaliana, UniProt O49686, K59R/M158I/Y120H); assay: In vitro receptor (PP2C) assay, 2:1 receptor to phosphatase; type: biochemical
T2 construct: 6×-His (N); made in house
T2 sequence (O49686 whole entry K59R/Y120H/M158I): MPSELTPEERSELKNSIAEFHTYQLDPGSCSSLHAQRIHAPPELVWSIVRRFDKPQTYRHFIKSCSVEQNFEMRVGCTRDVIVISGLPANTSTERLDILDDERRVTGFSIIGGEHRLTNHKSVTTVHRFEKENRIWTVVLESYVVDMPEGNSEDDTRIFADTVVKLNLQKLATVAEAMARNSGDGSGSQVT
T2 sequence (Q9CAJ0 23-511, further chain): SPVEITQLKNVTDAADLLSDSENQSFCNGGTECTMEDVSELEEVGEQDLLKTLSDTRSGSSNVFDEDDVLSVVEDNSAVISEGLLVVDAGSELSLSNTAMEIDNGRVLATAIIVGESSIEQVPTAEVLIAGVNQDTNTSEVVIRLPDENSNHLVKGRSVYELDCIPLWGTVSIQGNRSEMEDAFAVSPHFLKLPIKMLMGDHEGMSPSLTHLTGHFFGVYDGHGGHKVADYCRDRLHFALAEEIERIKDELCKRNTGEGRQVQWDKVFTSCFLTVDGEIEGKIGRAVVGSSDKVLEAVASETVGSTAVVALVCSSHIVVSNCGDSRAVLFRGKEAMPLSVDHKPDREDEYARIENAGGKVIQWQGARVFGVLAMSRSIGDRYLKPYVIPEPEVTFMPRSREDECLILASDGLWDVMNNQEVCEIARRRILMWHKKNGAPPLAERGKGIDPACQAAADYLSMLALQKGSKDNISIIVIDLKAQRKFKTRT
Description: FIGS. 2A-2B. […] FIG. 2A. The mutants (listed on left side of panel) were constructed in pBD-PYR1 and transformed into Y190 pAD-HAB1 yeast cells. The transformants were then grown on increasing concentrations of fenhexamid and scored for responsiveness using X-gal staining, performed as described in Park et al., 2009. As shown, the mutations K59R, Y120H, and M1581 are necessary for fenhexamid response by 27C-2. FIG. 2B. In vitro characterization of the PYR1 K59R, Y120H, M158I mutant. Recombinant wild-type and mutant PYR1 proteins were produced as described previously and used in PP2C assays, as described previously (Park et al., 2009), with the exception that a 2:1 ratio of receptor to phosphatase was utilized.
To establish the relevance of the residues identified by our screens, we focused on a highly sensitive fenhexamid-responsive mutant identified, 27C-2, which contains 5 mutations (P42S, K59R, R74C, Y120H, and M158I; SEQ ID NO:171; see Table 8) in comparison to the wild-type PYR1 sequence. […] To probe the role of the 5 mutations in fenhexamid response, each of these residues were reverted back to the wild-type residue using site-directed mutagenesis.

[3] = tested on: 35S::GFP-PYL2 K64R,Y124H,M164I,V67I,V114I transgenic plants; assay: Quantitative RT-PCR of ABA reporter genes in seedlings; type: in vivo, Arabidopsis; conditions: 100 μM fenhexamid for 6 hours, liquid culture; two independent transgenic lines; FIG. 5
Description: FIG. 5. Characterization of seedling transcriptional responses to fenhexamid in 35S::GFP-PYL2 K64R, Y124H, M164I, V67I, V114I transgenic plants. GFP-expressing T2 seedlings from respective lines were isolated after germination on petri plates and pre-screened by epi-fluorescence microscopy and subsequently grown in liquid media culture for 7 days, after which seedlings were treated with either 100 μM fenhexamid or control (0.1% DMSO) for 6 hours. RNA was subsequently isolated from the samples and utilized in quantitative RT-PCR experiments using three well-characterized ABA responsive transcripts (as described previously, Park et al., 2009). The primer sequences used for RT-PCR analysis were obtained from Roche and synthesized by Invitrogen. Quantitative RT-PCR was performed using SybrGreen on a BioRad CFX 96 real-time PCR instrument. mRNA copy number is expressed as copy number per nanogram total RNA. Data was normalized using an ACT2 gene. Copy number was established using a standard curve of known concentration of the target genes. […]
To further investigate ABA-response activation, we next tested GFP^+ transgenics (T2 segregants) and appropriate controls for activation of 3 ABA reporter genes (P5CS1, RD29A, and NCED3) in response to exposure to fenhexamid in liquid culture using quantitative RT-PCR methods. […]

[4] = tested on: PYL2 K64R,Y124H,M164I,V67I,V114I transgenic plants; assay: Water loss from detached aerial rosettes; type: in vivo, Arabidopsis; conditions: 100 μM spray, approximately 16 hours pretreatment, FIG. 6A-C
Description: FIGS. 6A-6C. Fenhexamid reduces water loss in transgenic PYL2^K64R, Y124H, M164I, V67I, V114I expressing plants. Shown are three independent water loss experiments (FIGS. 6A-C) conducted on transgenic plants treated with control, 100 μM fenhexamid, or 100 μM ABA containing solutions. Plants were treated as described in the Examples section below and water loss from aerial rosettes was measured after detachment.
Transgenic or control (wild-type) plants were grown under a 16 hr light/8 hr dark cycle for 3 weeks and then treated with either 100 μM (+)-ABA, 100 μM fenhexamid, or control (containing 0.1% Tween-20, 0.1% DMSO). ABA treatments were conducted as a positive control. The plants were sprayed in the evening prior to conducting water loss experiments. The next morning, approximately 16 hours post-treatment, the above-ground rosettes of the experimental samples were collected and transferred to weighing dishes, 8 plants per measured sample, and maintained under ˜90-100 μEinstein/m^2 fluorescent light illumination. Four groups of eight plants were measured per time point at 20 min intervals. The experiments were repeated three times over the course of an eight-week interval. […]

[5] = tested on: wild-type Columbia plants; assay: Water loss from detached aerial rosettes; type: in vivo, Arabidopsis; conditions: 100 μM spray, approximately 16 hours pretreatment, FIG. 7
Description: FIG. 7. […] Columbia plants were treated with control, 100 μM fenhexamid, or 100 μM ABA containing solutions. Plants were treated as described in the Examples section below and water loss from aerial rosettes was measured after detachment.
Transgenic or control (wild-type) plants were grown under a 16 hr light/8 hr dark cycle for 3 weeks and then treated with either 100 μM (+)-ABA, 100 μM fenhexamid, or control (containing 0.1% Tween-20, 0.1% DMSO). ABA treatments were conducted as a positive control. The plants were sprayed in the evening prior to conducting water loss experiments. The next morning, approximately 16 hours post-treatment, the above-ground rosettes of the experimental samples were collected and transferred to weighing dishes, 8 plants per measured sample, and maintained under ˜90-100 μEinstein/m^2 fluorescent light illumination. Four groups of eight plants were measured per time point at 20 min intervals. The experiments were repeated three times over the course of an eight-week interval. […] It should be noted, however, that ABA can activate all of the PYR/PYL receptors in a plant genome (at least 13 in Arabidopsis), while fenhexamid is selectively activating a single engineered receptor, PYL2^K64R,Y124H,M164I,V67I,V114I. […]

T1 sequence (O49686 whole entry S47P/K59R/Y120H): as the sequence (O49686 whole entry K59R/Y120H/M158I) above, with S47P, I158M counted along it
T1 sequence (Q9CAJ0 23-511, stated change not applied, further chain): as the sequence (Q9CAJ0 23-511, further chain) above

## CC1(C(=O)Nc2ccc(O)c(Cl)c2Cl)CCCCC1 [fenhexamid]
[1]
  Receptor activation (inhibition of PP2C activity): activated
[2]
  IC50: ~400 nM
[3]
  Activation of 3 ABA reporter genes (P5CS1, RD29A, and NCED3): substantial induction
[4]
  Water loss from detached rosettes: sufficient to reduce water loss
[5]
  Water loss from detached rosettes: does not affect water loss

— patent publication US20160312240A1, “MODIFIED PYR/PYL RECEPTORS ACTIVATED BY ORTHOGONAL LIGANDS” (The Regents of the University of California, priority 2010, published 2016)
